# Test results taken from patent publication US9029414B2, “Triterpenoid compounds and methods of use thereof” (Biotechnology Research Corporation, priority 2008, dated 2015).
# Tests used:
# [1] = tested on: phosphorylated STAT3, STAT4, STAT6 in splenocytes of EAE mice; assay: Western blot of phosphorylated STAT proteins in EAE splenocytes; type: cell-based; details: exogenous 30 μM, MOG 25 μg/mL, splenocytes of vehicle-treated EAE mice
# Description: On day 21, EAE mice were sacrificed by cervical dislocation and spleens were removed aseptically. The removed spleens were then cut with sterilized scissors and strained through […] mesh (BD Bioscience) with a plunger of 5 mL syringe (BD Bioscience) in 9 mL of RPMI 1640 (Invitrogen) with 100 U/mL penicillin and 100 μg/mL streptomycin (Sigma). The cell mixture was then added to 9 mL of Lympholyte (Cedarlane Laboratories) for gradient separation of splenocytes from red bloods cells by centrifugation at 1500 g for 20 min. After the centrifugation, the lympholyte layer containing splenocytes were carefully removed and washed with 10 mL of RPMI 1640 at 800 g for 10 min for three times. The isolated splenocytes were seeded onto different plate format and cultured with RPMI 1640 medium (Invitrogen) supplement with 10% heat inactivated fetal bovine serum (Invitrogen) and 100 U/mL penicillin and 100 μg/mL streptomycin at 37° C. CO2 incubator.
# Splenocytes of EAE mice were cultured at the density of 1×10^7 cells in 6-well plates (Falcon) and treated with the absence or presence of the MOG peptide (25 μg/mL) (Hooke Laboratories), DA001, and DA021 (30 μM) for 24 h. After overnight incubation, the splenocytes were lysed with RIPA containing antipain dihydrochloride, trypsin inhibitor, leupeptin, aprotinin, sodium orthovanadate, benzamidine and phenyl methane sulphonyl fluoride. After centrifugation at 14000 rpm for 15 min, 4° C., protein concentrations were determined by Dc Protein Assay kit (Bio-Rad). 20 μg of each sample was subjected to 10% SDS-PAGE with 20 mA for 3 h. Immunoblot analysis was performed by transfer of proteins onto nitrocellulose membranes using a mini trans-blot apparatus (Bio-Rad). After 2 h blocking with milk, the membranes were incubated overnight at 4° C. with specific primary Abs (1:1000): anti-phospho-Stat 3 (Cell signaling), anti-phospho-Stat 4 (BD Bioscience), and anti-phospho-Stat 6 (Cell signaling). Anti-α-tubulin (Sigma) was used as a loading control. After washing, subsequent incubation with anti-rabbit or anti-mouse HRP-conjugated secondary antibody (1:3000) (Cell Signaling) for 1 h at room temperature was carried out. The signal was detected by ECL Western blot detection kit (GE Healthcare).
# The efficacy of DA compounds in modulating the expression of pro-inflammation proteins was examined. Western blot analysis was performed on cultured splenocytes isolated from the spleen of EAE mice and the expression of signal transducers and activators of transcription (STAT) proteins was examined in response to exogenous treatments of MOG (25 μg/mL), DA001 (30 μM) and DA021 (30 μM). Exogenous addition of MOG [MOG (Ex)] to EAE splenocytes is shown to robustly increase the phosphorylation of STAT3, STAT4, and STAT6.
# Western blot analysis was performed as described in the methodology.
# FP receptor = FP receptor (Homo sapiens, UniProt P43088); assay: Radioligand competition binding assay, FP; details: target PGF, compound at 10 μM in duplicate, read-out: % inhibition of control specific binding
# FP receptor, sequence (P43088 whole entry): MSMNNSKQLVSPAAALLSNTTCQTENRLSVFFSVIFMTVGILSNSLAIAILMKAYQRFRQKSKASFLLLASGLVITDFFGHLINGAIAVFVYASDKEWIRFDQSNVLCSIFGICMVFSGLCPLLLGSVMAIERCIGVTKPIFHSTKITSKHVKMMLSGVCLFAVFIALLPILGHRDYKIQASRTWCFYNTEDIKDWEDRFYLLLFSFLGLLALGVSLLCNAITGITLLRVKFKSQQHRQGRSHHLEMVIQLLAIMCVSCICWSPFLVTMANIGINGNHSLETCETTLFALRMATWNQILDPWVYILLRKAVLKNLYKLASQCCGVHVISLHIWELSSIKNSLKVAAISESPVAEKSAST
# Description: DA001 was further evaluated against 32 receptor binding assays. Radioligand competition assays were conducted whereby DA001 was tested at one concentration (10 uM) in duplicate. […] It could compete with the radioligand [^3H] PGE2 binding at the EP1 and EP4 receptors, and weakly competed with the EP2 and FP receptors.
# To determine the targets of DA compounds, the compound was assessed in binding assays for the family of prostanoid receptors. Both compounds were tested at a single concentration (10 μM) in duplicate. DA001 and DA021 inhibit the ligand binding of prostaglandin E2 receptors EP1, EP2 and EP4 and moderately to prostaglandin (PGF) to its receptor (FP), but not prostaglandin I (PGI2), thromoboxane A and prostaglandin D2 to their receptors.
SMILES,MOG-induced STAT3 phosphorylation [1],MOG-induced STAT4 phosphorylation [1],inhibition at 10 µM (FP receptor),STAT6 phosphorylation [1]
"C=C(C)[C@@H]1CC[C@]2(C(=O)O)CC[C@]3(C)C(CC[C@@H]4[C@@]5(C)CC[C@H](O[C@@H]6OC[C@H](O)[C@H](O)[C@H]6O[C@@H]6O[C@@H](C)[C@H](O)[C@@H](O)[C@H]6O)[C@@](C)(CO)[C@@H]5CC[C@]43C)[C@@H]12 (stereo partly drawn) [DA001, 3-O-[α-L-rhamnopyranosyl-(1→2)-α-L-arabinopyranosyl]-3,23-dihydroxy-20(29)-lupen-28-oic acid]",significantly decreased,significantly decreased,27%,–
C=C(C)[C@@H]1CC[C@]2(/C=N/O)CC[C@]3(C)C(CCC4[C@@]5(C)CCC(=O)[C@@](C)(CO)[C@@H]5CC[C@]43C)C12 (stereo partly shown) [DA021],significantly decreased,significantly decreased,52%,marked decrease
